Source: US20240174690A1, “ANNULATED 2-AMINO-3-CYANO THIOPHENES AND DERIVATIVES FOR THE TREATMENT OF CANCER” (BOEHRINGER INGELHEIM INTERNATIONAL GMBH, priority 2021, published 2024)
Read-outs that look alike come from different tables or passages of the source.

Experiments:
[1] = Plasma protein binding assay (PPB), equilibrium dialysis, 10% FCS in PBS; assay type: in vitro ADME; conditions: bovine, read-out: PPB 10% FCS (% fu)
In short: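 Test compound (1-10 μmol/L) in 10% FCS in PBS was dialysed for 3-5 h at 37° C versus PBS ± dextran across a semipermeable membrane. LC-MS of both compartments after protein precipitation gave Cserum and Cbuffer, from which the unbound fraction fu was derived.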

NCI-H358 cells = assay: NCI-H358 CTG proliferation assay (120 h) (NSCLC, G12C); assay type: cell-based, human; conditions: Homo sapiens
In short: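 IC50 values derive from four-parameter nonlinear regression of CellTiter-Glo viability (RLU relative to DMSO wells) after 120 h of exposure. Cells were plated in RPMI-1640 + 10% FCS at 2000 per well (assay 1) or 200 per well (assay 2). Untreated cells were measured at compound addition as T0.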

[2] = test system: KRAS G12C-dependent Ba/F3 cells; assay: Ba/F3 proliferation assay, KRAS G12C; assay type: cell-based; conditions: Mus musculus, BaF3, 72 h, AlamarBlue
In short: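 IL-3-independent Ba/F3 lines driven by transduced KRAS G12C, G12D or G12V, with puromycin withdrawn about ten days before testing. Viability after compound treatment measured by AlamarBlue fluorescence in duplicate, and values derived by curve fitting.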

[3] = Metabolic (microsomal) stability assay, human liver microsomes (HLM); assay type: in vitro ADME; conditions: predicted clearance as percent of liver blood flow, 1 μM
In short: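 LC-MS/MS tracked parent disappearance at 0, 5, 15, 30 and 60 min in NADPH-initiated incubations with 1 mg/mL human microsomal protein and 1 μM compound at 37°C, pH 7.5. First-order fits gave intrinsic clearance, which was scaled up and reported as % QH. NADPH-free controls were also run.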

[4] = assay 2, CTG, read-out: H358 (assay 2) IC50
[5] = assay 1, CTG, read-out: H358 (assay 1) IC50

CC(=O)N1CC=C(c2cc(O[C@@H](C)[C@@H]3CCCN3C)nc(-c3noc4c3CCC[C@@]43CCCc4sc(N)c(C#N)c43)n2)CC1 [II-81]
fraction unbound [1]: 0.52 | IC50 (NCI-H358 cells; [4]): 1200 nM | IC50 [2]: 49 nM | HLM QH [3]: <24%

C[C@H](Oc1cc(C2COCCO2)nc(-c2noc3c2CCC[C@@]32CCCc3sc(N)c(C#N)c32)n1)[C@@H]1CCCN1C (some centres unmarked) [II-95]
fraction unbound [1]: 0.53 | IC50 (NCI-H358 cells; [4]): 400 nM | IC50 [2]: 30 nM | HLM QH [3]: 37%

C[C@H](O)Cn1ccc(-c2cc(O[C@@H](C)[C@@H]3CCCN3C)nc(-c3noc4c3CCC[C@@]43CCCc4sc(N)c(C#N)c43)n2)n1 [II-112]
fraction unbound [1]: 0.41 | IC50 (NCI-H358 cells; [4]): 141 nM | IC50 [2]: 11 nM | HLM QH [3]: <24%

C[C@H](Oc1cc(N2CCCC3(COC3)C2)nc(-c2noc3c2CCC[C@@]32CCCc3sc(N)c(C#N)c32)n1)[C@@H]1CCCN1C [II-72]
fraction unbound [1]: 0.1 | IC50 (NCI-H358 cells; [4]): 9 nM | IC50 [2]: 22 nM | HLM QH [3]: 41%

C[C@H](Oc1cc(N2CCNCC23CCOC3)nc(-c2onc3c2CCC[C@@]32CCCc3sc(N)c(C#N)c32)n1)[C@@H]1CCCN1C (some centres unmarked) [I-10]
fraction unbound [1]: 0.7 | IC50 (NCI-H358 cells; [4]): 200 nM | IC50 [2]: 218 nM | HLM QH [3]: 30%

C[C@H](Oc1cc(N2CCNC[C@]23CCOC3)nc(-c2noc3c2CCC[C@@]32CCCc3sc(N)c(C#N)c32)n1)[C@@H]1CCCN1C [II-50]
fraction unbound [1]: 0.38 | IC50 (NCI-H358 cells; [4]): 2710 nM | IC50 [2]: 270 nM | HLM QH [3]: 52%

C[C@H](Oc1cc(-c2cnn(C)c2)nc(-c2noc3c2CCC[C@@]32CCCc3sc(N)c(C#N)c32)n1)[C@@H]1CCCN1C [II-74]
fraction unbound [1]: 0.48 | IC50 (NCI-H358 cells; [4]): 1680 nM | IC50 [2]: 50 nM | HLM QH [3]: <24%

C[C@H](Oc1cc(N2CCNC2=O)nc(-c2noc3c2CCC[C@@]32CCCc3sc(N)c(C#N)c32)n1)[C@@H]1CCCN1C [II-64]
fraction unbound [1]: 0.23 | IC50 (NCI-H358 cells; [5]): 36 nM | IC50 [2]: 9 nM | HLM QH [3]: 27%

C[C@H](Oc1cc(N2C[C@H](C)N[C@@H](C)C2)nc(-c2noc3c2CCC[C@@]32CCCc3sc(N)c(C#N)c32)n1)[C@@H]1CCCN1C [II-56]
fraction unbound [1]: 0.48 | IC50 (NCI-H358 cells; [5]): 587 nM | IC50 (NCI-H358 cells; [4]): 173 nM | IC50 [2]: 233 nM | HLM QH [3]: <24%

C[C@H](Oc1cc(N2CC[C@H](N(C)C)C2)nc(-c2noc3c2CCC[C@@]32CCCc3sc(N)c(C#N)c32)n1)[C@@H]1CCCN1C [II-49]
fraction unbound [1]: 0.36 | IC50 (NCI-H358 cells; [4]): 1910 nM | IC50 [2]: 329 nM | HLM QH [3]: <24%

C[C@H](Oc1cc(N2C[C@H](C)N[C@@H](C)C2)nc(-c2onc3c2CCC[C@@]32CCCc3sc(N)c(C#N)c32)n1)[C@@H]1CCCN1C [I-6]
fraction unbound [1]: 0.94 | IC50 (NCI-H358 cells; [5]): 809 nM | IC50 [2]: 253 nM | HLM QH [3]: <24%

C[C@H](Oc1cc(-c2ccc(N)nc2)nc(-c2noc3c2CCC[C@@]32CCCc3sc(N)c(C#N)c32)n1)[C@@H]1CCCN1C [II-101]
fraction unbound [1]: 0.23 | IC50 (NCI-H358 cells; [4]): 195 nM | IC50 [2]: 51 nM | HLM QH [3]: 31%

C[C@H](Oc1cc(-n2cc(Cn3cncn3)nn2)nc(-c2noc3c2CCC[C@@]32CCCc3sc(N)c(C#N)c32)n1)[C@@H]1CCCN1C [II-124]
fraction unbound [1]: 0.4 | IC50 (NCI-H358 cells; [4]): 114 nM | IC50 [2]: 9 nM | HLM QH [3]: 37%

CO[C@@H]1C[C@@H]([C@H](C)Oc2cc(-n3ccnc3)nc(-c3noc4c3CCC[C@@]43CCCc4sc(N)c(C#N)c43)n2)N(C)C1 [II-58]
fraction unbound [1]: 0.31 | IC50 (NCI-H358 cells; [4]): 562 nM | IC50 [2]: 41 nM | HLM QH [3]: 46%

C[C@H](Oc1cc(-n2cc3c(n2)CCNC3)nc(-c2noc3c2CCC[C@@]32CCCc3sc(N)c(C#N)c32)n1)[C@@H]1CCCN1C [II-53]
fraction unbound [1]: 0.29 | IC50 (NCI-H358 cells; [4]): 230 nM | IC50 [2]: 292 nM | HLM QH [3]: 46%

C[C@H](Oc1cc(-n2cccc3cnnc2-3)nc(-c2noc3c2CCC[C@@]32CCCc3sc(N)c(C#N)c32)n1)[C@@H]1CCCN1C [II-92]
fraction unbound [1]: 0.09 | IC50 (NCI-H358 cells; [4]): 3400 nM | IC50 [2]: 47 nM | HLM QH [3]: <24%

C[C@H](Oc1cc(N2Cc3cnn(C)c3C2)nc(-c2noc3c2CCC[C@@]32CCCc3sc(N)c(C#N)c32)n1)[C@@H]1CCCN1C [II-63]
fraction unbound [1]: 0.06 | IC50 (NCI-H358 cells; [4]): 66 nM | IC50 [2]: 114 nM | HLM QH [3]: <24%

Cc1cn(C)nc1-c1cc(O[C@@H](C)[C@@H]2CCCN2C)nc(-c2noc3c2CCC[C@@]32CCCc3sc(N)c(C#N)c32)n1 [II-68]
fraction unbound [1]: 0.09 | IC50 (NCI-H358 cells; [4]): 111 nM | IC50 [2]: 56 nM | HLM QH [3]: <24%

C[C@H](Oc1cc(-c2ccn3ncnc3c2)nc(-c2noc3c2CCC[C@@]32CCCc3sc(N)c(C#N)c32)n1)[C@@H]1CCCN1C [II-104]
fraction unbound [1]: 0.18 | IC50 (NCI-H358 cells; [4]): 391 nM | IC50 [2]: 24 nM | HLM QH [3]: <24%

CO[C@@H]1C[C@@H]([C@H](C)Oc2cc(-c3ccn(C)n3)nc(-c3noc4c3CCC[C@@]43CCCc4sc(N)c(C#N)c43)n2)N(C)C1 [II-91]
fraction unbound [1]: 0.08 | IC50 (NCI-H358 cells; [5]): 78 nM | IC50 (NCI-H358 cells; [4]): 19 nM | IC50 [2]: 15 nM | HLM QH [3]: 46%

C[C@H](Oc1cc(N2CCNC3(CC3)C2)nc(-c2noc3c2CCC[C@@]32CCCc3sc(N)c(C#N)c32)n1)[C@@H]1CCCN1C [II-54]
fraction unbound [1]: 0.3 | IC50 (NCI-H358 cells; [5]): 298 nM | IC50 (NCI-H358 cells; [4]): 908 nM | IC50 [2]: 74 nM | HLM QH [3]: 28%

C[C@H](Oc1cc(-n2ccnc2Cl)nc(-c2noc3c2CCC[C@@]32CCCc3sc(N)c(C#N)c32)n1)[C@@H]1CCCN1C [II-93]
fraction unbound [1]: 0.05 | IC50 (NCI-H358 cells; [4]): 872 nM | IC50 [2]: 16 nM | HLM QH [3]: 44%

C[C@H](Oc1cc(-n2ccnc2)nc(-c2noc3c2CCC[C@@]32CCCc3sc(N)c(C#N)c32)n1)[C@@H]1C[C@@H](F)CN1C [II-120]
fraction unbound [1]: 0.24 | IC50 (NCI-H358 cells; [4]): 190 nM | IC50 [2]: 27 nM | HLM QH [3]: 47%

C[C@H](Oc1cc(-c2ccncc2)nc(-c2noc3c2CCC[C@@]32CCCc3sc(N)c(C#N)c32)n1)[C@@H]1CCCN1C [II-78]
fraction unbound [1]: 0.49 | IC50 (NCI-H358 cells; [4]): 170 nM | IC50 [2]: 37 nM | HLM QH [3]: 35%

C[C@H](Oc1cc(-c2cc[nH]n2)nc(-c2noc3c2CCC[C@@]32CCCc3sc(N)c(C#N)c32)n1)[C@@H]1CCCN1C [II-71]
fraction unbound [1]: 0.59 | IC50 (NCI-H358 cells; [4]): 209 nM | IC50 [2]: 28 nM | HLM QH [3]: <24%

C[C@H](Oc1cc(-c2cnsc2)nc(-c2noc3c2CCC[C@@]32CCCc3sc(N)c(C#N)c32)n1)[C@@H]1CCCN1C [II-111]
fraction unbound [1]: 0.11 | IC50 (NCI-H358 cells; [4]): 139 nM | IC50 [2]: 10 nM | HLM QH [3]: <24%

C[C@H](Oc1cc(-n2cc(C3CC3)nn2)nc(-c2noc3c2CCC[C@@]32CCCc3sc(N)c(C#N)c32)n1)[C@@H]1CCCN1C [II-118]
fraction unbound [1]: 0.08 | IC50 (NCI-H358 cells; [4]): 295 nM | IC50 [2]: 25 nM | HLM QH [3]: 25%

C[C@H](Oc1cc(N2CCC[C@H](O)C2)nc(-c2noc3c2CCC[C@@]32CCCc3sc(N)c(C#N)c32)n1)[C@@H]1CCCN1C [II-57]
fraction unbound [1]: 0.5 | IC50 (NCI-H358 cells; [4]): 286 nM | IC50 [2]: 38 nM | HLM QH [3]: <24%

C[C@H](Oc1cc(C2=CCOCC2)nc(-c2noc3c2CCC[C@@]32CCCc3sc(N)c(C#N)c32)n1)[C@@H]1CCCN1C [II-67]
fraction unbound [1]: 0.23 | IC50 (NCI-H358 cells; [4]): 1040 nM | IC50 [2]: 28 nM | HLM QH [3]: <24%
